Test results published in patent US6875760B2 (Novo Nordisk A/S, priority 1999, dated 2005).

Target: T1, human glucagon receptor (Homo sapiens, UniProt P47871)
T1 construct: expressed in transfected cells; host or cells: BHK (baby hamster kidney) cells
Assay: Glucagon Binding Assay (III)
Settings: BHK cell membranes, WGA SPA beads, 125I-glucagon; read-out: Glu Bd Assay (III) IC50
Method in brief: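 Membranes from BHK cells transfected with the human receptor, prepared at 4 °C, were used in a WGA-bead scintillation proximity binding format. Plates were shaken for 4 hours, left to settle 8–48 hours and then counted. Non-specific binding was defined with 500 nM glucagon.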

T1 sequence (P47871 26-477): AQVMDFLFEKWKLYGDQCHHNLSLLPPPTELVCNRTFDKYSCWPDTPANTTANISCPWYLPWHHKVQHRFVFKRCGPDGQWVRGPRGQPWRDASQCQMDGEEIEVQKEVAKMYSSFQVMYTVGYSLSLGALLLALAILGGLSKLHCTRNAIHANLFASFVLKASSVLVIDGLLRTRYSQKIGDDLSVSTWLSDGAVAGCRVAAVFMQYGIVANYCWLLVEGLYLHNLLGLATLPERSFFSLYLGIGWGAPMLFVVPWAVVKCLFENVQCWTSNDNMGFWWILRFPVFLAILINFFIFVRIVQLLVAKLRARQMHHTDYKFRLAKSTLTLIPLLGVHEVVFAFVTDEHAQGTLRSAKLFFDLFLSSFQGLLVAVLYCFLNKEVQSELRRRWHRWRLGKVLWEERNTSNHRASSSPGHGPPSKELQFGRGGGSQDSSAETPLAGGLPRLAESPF

Row | Structure (SMILES) | IC50 [µM]
1 | COc1ccc(NC(=O)N(Cc2ccc(C(=O)NCCC(=O)O)cc2)C2CCC(C(C)(C)C)CC2)cc1 (stereo not shown) [Example 59, 3-{4-[1-(4-tert-Butylcyclohexyl)-3-(4-methoxyphenyl)ureidomethyl]benzoylamino}propionic acid] | 3.8
2 | O=C(O)CCNC(=O)c1ccc(CN(C(=O)Oc2cc(C(F)(F)F)cc(C(F)(F)F)c2)c2ccc(C3CCCCC3)cc2)cc1 [Example 419, 3-(-4-{[(3,5-Bis(trifluoromethyl)phenoxycarbonyl)-(4-cyclohexylphenyl)amino]methyl}benzoylamino)propionic acid] | 0.482
3 | CC(C)Cc1ccc(NC(=O)N(Cc2ccc(C(=O)NCCC(=O)O)cc2)C2CCC(C(C)(C)C)CC2)cc1 (stereo not shown) [Example 62, 3-{4-[1-(4-tert-Butylcyclohexyl)-3-(4-isobutylphenyl)ureidomethyl]benzoylamino}propionic acid] | 0.039
4 | CCCCC(CC)CN(Cc1ccc(C(=O)NCCC(=O)O)cc1)C(=O)Nc1ccc(SC)cc1 (stereo not shown) [Example 41, 3-{4-[1-(2-Ethylhexyl)-3-(4-methylsulfanylphenyl)ureidomethyl]benzoylamino}propionic acid] | 0.299
5 | O=C(O)CCNC(=O)c1ccc(CN(C(=O)Oc2ccc(Br)cc2Br)c2ccc(C3CCCCC3)cc2)cc1 [Example 420, 3-(4-{[(4-Cyclohexylphenyl)-(2,4-dibromompheoxycarbonyl)amino]methyl}benzoylamino)propionic acid] | 0.729
6 | CC(C)(C)c1ccc(N(Cc2ccc(C(=O)NCCC(=O)O)cc2)C(=O)Oc2ccc(Cl)cc2Cl)cc1 [Example 407, 3-(4-{[(4-tert-Butylphenyl)-(2,4-dichlorophenoxycarbonyl)amino]methyl}benzoylamino)propionic acid] | 0.756
7 | CCCCC(CC)CN(Cc1ccc(C(=O)NCCC(=O)O)cc1)C(=O)Nc1cccc(C#N)c1 (stereo not shown) [Example 20, 3-{4-[3-(3-Cyanophenyl)-1-(2-ethylhexyl)ureidomethyl]benzoylamino}propionic acid] | 2.37
8 | CC(C)(C)C1CCC(N(Cc2ccc(C(=O)NCCC(=O)O)cc2)C(=O)Nc2ccc(F)c(F)c2)CC1 (stereo not shown) [Example 72, 3-{4-[1-(4-tert-Butylcyclohexyl)-3-(3,4-difluorophenyl)ureidomethyl]benzoylamino}propionic acid] | 0.673
9 | CC1CCCCC1N(Cc1ccc(C(=O)NCCC(=O)O)cc1)C(=O)Nc1ccc(Oc2ccccc2)cc1 (stereo not shown) [Example 48, 3-{4-[1-(2-Methylcyclohexyl)-3-(4-phenoxyphenyl)ureidomethyl]benzoylamino}propionic acid] | 1.07
10 | O=C(O)CCNC(=O)c1ccc(CN(C(=O)Oc2ccccc2[N+](=O)[O-])c2ccc(C3CCCCC3)cc2)cc1 [Example 415, 3-(4-{[(4-Cyclohexylphenyl)-(2-nitrophenoxycarbonyl)amino]methyl}benzoylamino)propionic acid] | 2.42
11 | O=C(O)CCNC(=O)c1ccc(CN(CCc2ccc(Cl)c(Cl)c2)C(=O)Nc2ccc(OCc3ccccc3)cc2)cc1 [Example 47, 3-{4-[3-(4-Benzyloxyphenyl)-1-[2-(3,4-dichlorophenyl)ethyl]ureidomethyl]benzoylamino}propionic acid] | 1.1
12 | CC1C(N(Cc2ccc(C(=O)NCCC(=O)O)cc2)C(=O)Nc2ccc(OC(F)(F)F)cc2)CC2CC1C2(C)C (stereo not shown) [Example 65, 3-{4-[3-(4-Trifluoromethoxyphenyl)-1-(2,6,6-trimethylbicyclo[3.1.1]hept-3-yl)ureidomethyl]benzoylamino}propionic acid] | 0.183
13 | O=C(O)CCNC(=O)c1ccc(CN(C(=O)Nc2ccc(OC(F)(F)F)cc2)C2CCC3CCCCC3C2)cc1 (stereo not shown) [Example 79, 3-{4-[1-(Decahydronaphthalen-2-yl)-3-(4-trifluoromethoxyphenyl)ureidomethyl]benzoylamino}propionic acid] | 0.2
14 | CC(C)(C)C1CCC(N(Cc2ccc(C(=O)NCCC(=O)O)cc2)C(=O)Oc2ccc(OC(F)(F)F)cc2)CC1 (stereo not shown) [Example 405, 3-(4-{[(4-tert-Butylcyclohexyl)-(4-trifluoromethoxyphenoxecarbonyl)amino]methyl}benzoylamino)propionic acid] | 0.224

Further lines, results first:

Row | IC50 [µM] | Structure (SMILES)
15 | 0.542 | CS(=O)(=O)c1cccc(NC(=O)N(Cc2ccc(C(=O)Nc3nn[nH]n3)cc2)C2CCC3(CCCCC3)CC2)c1 [Example 620, 4-[3-(3-Methylsulfonylphenyl)-1-spiro[5.5]undec-3-ylureidomethyl]-N-(2H-tetrazol-5-yl)benzamide]
16 | 2.94 | O=C(Nc1nn[nH]n1)c1ccc(CN(CC(c2ccccc2)c2ccccc2)C(=O)/C=C/c2c(Cl)cccc2Cl)cc1 [Example 478, 4-{[[3-(2,6-Dichlorophenyl)acryloyl]-(2,2-diphenylethyl)amino]methyl}-N-(2H-tetrazol-5-yl)benzamide]
17 | 0.146 | CC(C)(C)C1CCC(N(Cc2ccc(C(=O)NCCC(=O)O)cc2)C(=O)Nc2ccc(Oc3ccccc3)nc2)CC1 (stereo not shown) [Example 246, 3-{4-[1-(4-tert-Butylcyclohexyl)-3-(6-phenoxypyridin-3-yl)ureidomethyl]benzoylamino}propionic acid]
18 | 0.781 | CCN(CC)C(=O)C1CCC(N(Cc2ccc(C(=O)NCCC(=O)O)cc2)C(=O)Nc2ccc(OC(F)(F)F)cc2)CC1 (stereo not shown) [Example 382, 3-{4-[1-(4-Diethylcarbamoylcyclohexyl)-3-(4-trifluoromethoxyphenyl)ureidomethyl]benzoylamino}propionic acid]
19 | 0.104 | O=C(Nc1nn[nH]n1)c1ccc(CN(C(=O)Nc2nc3cc4c(cc3s2)OC(F)(F)C(F)(F)O4)c2ccc(C3CCCCC3)cc2)cc1 [Example 617]
20 | 0.021 | CC(C)(C)C1CCC(N(Cc2ccc(C(=O)NCCC(=O)O)cc2)C(=O)Nc2ccc3c(c2)C(=O)N(CC2CC2)C3=O)CC1 (stereo not shown) [Example 641, 3-{4-[1-(4-tert-Butylcyclohexyl)-3-(N′-[cyclopropylmethyl]phthalimid-4-yl)ureidomethyl]benzoylamino}propionic acid]
21 | 0.133 | CC(C)(C)C1CCC(N(Cc2ccc(C(=O)Nc3nn[nH]n3)cc2)C(=O)/C=C/c2c(Cl)cccc2Cl)CC1 (stereo not shown) [Example 552, 4-({(4-tert-Butylcyclohexyl)-[3-(2,6-dichlorophenyl)acryloyl]amino}methyl)-N-(2H-tetrazol-5-yl)benzamide]
22 | 0.016 | O=C(Nc1nn[nH]n1)c1ccc(CN(C(=O)Nc2cccc(Br)c2)c2ccc(C3CCCCC3)cc2)cc1 [Example 356, 4-[3-(3-Bromophenyl)-1-(4-cyclohexylphenyl)ureidomethyl]-N-(2H-tetrazol-5-yl)benzamide]
23 | 0.108 | CC(C)(C)C1CCC(N(Cc2ccc(C(=O)NCCC(=O)O)cc2)C(=O)Cc2ccc(OC(F)(F)F)cc2)CC1 (stereo not shown) [Example 506, 3-[4-({(4-tert-Butylcyclohexyl)-[2-(4-trifluoromethoxyphenyl)acetyl]amino}methyl)benzoylamino]propionic acid]
24 | 0.18 | CC(C)(C)C1CCC(N(Cc2ccc(C(=O)Nc3nn[nH]n3)cc2)C(=O)C/C=C/c2ccccc2)CC1 (stereo not shown) [Example 538, 4-{[(4-tert-Butylcyclohexyl)-(4-phenylbut-3-enoyl)amino]methyl}-N-(2H-tetrazol-5-yl)benzamide]
25 | 1.8 | O=C(O)CCNC(=O)c1ccc(CN(Cc2ccc(Cl)c(Cl)c2)C(=O)Nc2ccc(OC(F)(F)F)cc2)cc1 [Example 432, 3-{4-[1-(3,4-Dichlorobenzyl)-3-(4-trifluoromethoxyphenyl)ureidomethyl]benzoylamino}propionic acid]
26 | 0.055 | CC(C)(C)C1CCC(N(Cc2ccc(C(=O)Nc3nn[nH]n3)cc2)C(=O)/C=C/c2ccc(Cl)cc2)CC1 (stereo not shown) [Example 549, 4-({(4-tert-Butylcyclohexyl)-[3-(4-chlorophenyl)acroloyl]amino}methyl)-N-(2H-tetrazol-5-yl)benzamide]
27 | 0.278 | CC(C)(C)c1ccc(N(Cc2ccc(C(=O)Nc3nn[nH]n3)cc2)C(=O)Nc2ccccc2)cc1 [Example 329]
28 | 0.095 | CCCCN(C)C(=O)c1cccc(NC(=O)N(Cc2ccc(C(=O)Nc3nn[nH]n3)cc2)c2ccc(C3CCCCC3)cc2)c1 [Example 464, N-Butyl-N-methyl-3-{3-(4-cyclohexylphenyl)-3-[4-(2H-tetrazol-5-ylcarbamoyl)benzyl]ureido}benzamide]
29 | 0.376 | O=C(Nc1nn[nH]n1)c1ccc(CN(C(=O)Nc2nc3ccc([N+](=O)[O-])cc3s2)c2ccc(C3CCCCC3)cc2)cc1 [Example 342, 4-[1-(4-Cyclohexylphenyl)-3-(6-nitrobenzothiazol-2-yl)ureidomethyl]-N-(2H-tetrazol-5-yl)benzamide]
30 | 0.381 | CC(C(=O)N(Cc1ccc(C(=O)Nc2nn[nH]n2)cc1)C1CCC(C(C)(C)C)CC1)c1ccccc1 (stereo not shown) [Example 550, 4-{[(4-tert-Butylcyclohexyl)-(2-Phenylpropionyl)amino]methyl}-N-(2H-tetrazol-5-yl)benzamide]
31 | 0.017 | O=C(O)CCNC(=O)c1ccc(CN(C(=O)Nc2cc(Br)cc(C(F)(F)F)c2)c2ccc(C3CCCCC3)cc2)cc1 [Example 394, 3-{4-[1-(4-Cyclohexylphenyl)-3-(3-bromo-5-trifluoromethylphenyl)ureidomethyl]benzoylamino}propionic acid]
32 | 0.046 | CC(C)(C)c1ccc(N(Cc2ccc(C(=O)Nc3nn[nH]n3)cc2)C(=O)Nc2ccc(OC(F)(F)F)c(S(C)(=O)=O)c2)cc1 [Example 312, 4-[1-(4-tert-Butylphenyl)-3-(3-methylsulfonyl-4-trifluoromethoxyphenyl)ureidomethyl]-N-(2H-tetrazol-5-yl)benzamide]
33 | 1.1 | O=C(Nc1nn[nH]n1)c1ccc(CN(C(=O)c2cccc(C(F)(F)F)c2)c2ccc(C3CCCCC3)cc2)cc1 [Example 510, 4-{[(4-Cyclohexylphenyl)-(3-trifluoromethylbenzoyl)amino]methyl}-N-(2H-tetrazol-5-yl)benzamide]
34 | 1.8 | O=C(Nc1nn[nH]n1)c1ccc(CN(C(=O)CCOc2ccccc2)c2ccc(C3CCCCC3)cc2)cc1 [Example 533, 4-{[(4-Cyclohexylphenyl)-(3-phenoxypropionyl)amino]methyl}-N-(2H-tetrazol-5-yl)benzamide]
